Measured values published in patent US5916887A, “4-substituted-3-(2-amino-2-cycloalkyl methyl)-acetamido azetidin-2-one derivatives as cysteine proteinase regulators” (National Research Council of Canada, priority 1997, dated 1999).

Experiments:
cathepsin B [1] = target: T1, cathepsin B (Rattus norvegicus, UniProt P00787); experiment: In vitro assay procedure for cathepsin B (recombinant rat cathepsin B, N-CBZ-Phe-Arg-AMC substrate); assay type: biochemical; conditions: pH 5.1, 10 min incubation at room temperature
Procedure: In vitro assay procedure for cathepsin B
The compounds of formula I are tested for inhibition of cathepsin B using the known method (A. J. Barret et al., Biochem. J. 1982, 201, 189-198). To 170 μl of an enzyme-buffer mixture (enzyme: recombinant rat cathepsin B, diluted to give approximate 10 Fluorescence units/min, buffer: 56 mM sodium acetate, 1.124 mM EDTA, 10 mM DTT, pH 5.1) 10 μL of inhibitor (dissolved in DMSO) is added. After 10 min of incubation at room temperature, a 20 μl of 5 mM substrate (N-CBZ-Phe-Arg-AMC, dissolved in DMSO) is added to initiate reaction. Reading is followed up for 10 min on a Fluoroskan fluorescence reader (excitation at 380 nm, emission at 460 nm).
(§1) A plot of percentage of inhibition vs inhibitor concentration is obtained, and IC50 is determined using a linear regression calculation (concentration of inhibitor which will give 50% inhibition).
Target sequence in this assay (P00787 80-339): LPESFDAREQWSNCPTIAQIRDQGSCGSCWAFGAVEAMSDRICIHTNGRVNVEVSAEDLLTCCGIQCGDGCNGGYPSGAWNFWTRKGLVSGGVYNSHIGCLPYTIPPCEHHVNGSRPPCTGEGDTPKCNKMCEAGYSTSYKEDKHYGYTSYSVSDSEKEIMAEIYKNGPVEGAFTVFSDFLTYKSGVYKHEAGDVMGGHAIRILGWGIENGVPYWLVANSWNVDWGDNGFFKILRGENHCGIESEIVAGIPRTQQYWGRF

cathepsin L [2] = target: T2, cathepsin L (Rattus norvegicus, UniProt P07154); experiment: In vitro assay procedure for cathepsin L (recombinant rat cathepsin L, N-CBZ-Phe-Arg-AMC substrate); assay type: biochemical; conditions: pH 5.0, 10 min incubation at room temperature
Procedure: In vitro assay procedure for cathepsin L
To 170 μl of enzyme-buffer mixture (enzyme: recombinant rat cathepsin L, diluted to give approximate 15 Fluorescence units/min, buffer: 58.8 mM sodium citrate, 1.18 mM EDTA, 235 mM sodium chloride, 5 mM DTT, pH 5.0) 10 μL of inhibitor (dissolved in DMSO) is added. After 10 min of incubation at room temperature, 20 μl of 1 mM substrate (N-CBZ-Phe-Arg-AMC, dissolved in DMSO) is added to initiate reaction. Reading is followed up for 10 min on a Fluoroskan fluorescence reader (excitation at 380 nm emission at 460 nm).
as §1
Target sequence in this assay (P07154 114-334): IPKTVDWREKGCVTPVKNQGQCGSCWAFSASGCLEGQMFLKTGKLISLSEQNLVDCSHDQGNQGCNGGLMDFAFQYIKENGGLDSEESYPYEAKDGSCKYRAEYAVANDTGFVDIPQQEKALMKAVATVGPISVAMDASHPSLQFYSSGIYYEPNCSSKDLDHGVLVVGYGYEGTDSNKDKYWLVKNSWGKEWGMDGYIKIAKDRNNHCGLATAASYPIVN

cathepsin B [3] = experiment: In vivo inhibition test for cathepsin B, mouse liver ML fraction; conditions: 50 mg/kg intraperitoneal, 6 hours, mean for 3 animals
Procedure: (§2) In vivo inhibition test for cathepsin B and L
(§3) The in vivo inhibition of cathepsin B and L are tested according to the known method (T. Towatari et al, FEBS, 1991, 280, 311-315). Inhibitor is injected intraperitoneally into rodents as a solution in saline containing DMSO or DMSO:PEG400 (1:1) at the doses indicated in Table 2. The rodents are killed after 6 hours, and the liver is perfused with ice-cold saline, and chilled on ice. Sample of 4 g of liver are homogenized in 7 volumes of 0.25 M sucrose. The homogenate is centrifuged at 800 g for 15 min. and the supernatant is centrifuged at 12,000 g for 30 min. The precipitate (crude mitochondrial-lysosomal fraction; ML fraction) is suspended in 2 ml of 0.05 M acetate buffer, pH 5.0, and then freeze-thawed for measurements of cathepsin B and L.

cathepsin L [4] = experiment: In vivo inhibition test for cathepsin L, mouse liver ML fraction; conditions: 50 mg/kg intraperitoneal, 6 hours, mean for 3 animals
Procedure: as §2, §3

cathepsin B [5] = target: T1, cathepsin B; experiment: In vivo inhibition test for cathepsin B, rat liver ML fraction; set-up: The precipitate (crude mitochondrial-lysosomal fraction; from tissue; host or cells: liver, crude mitochondrial-lysosomal (ML) fraction of dosed rodents; conditions: 6 hours, mean for 3 animals
Procedure: as §2, §3
Target sequence in this assay (P00787 80-126 limits assumed): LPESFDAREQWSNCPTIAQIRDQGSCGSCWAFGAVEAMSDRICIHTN
Target sequence in this assay (P00787 129-333 limits assumed): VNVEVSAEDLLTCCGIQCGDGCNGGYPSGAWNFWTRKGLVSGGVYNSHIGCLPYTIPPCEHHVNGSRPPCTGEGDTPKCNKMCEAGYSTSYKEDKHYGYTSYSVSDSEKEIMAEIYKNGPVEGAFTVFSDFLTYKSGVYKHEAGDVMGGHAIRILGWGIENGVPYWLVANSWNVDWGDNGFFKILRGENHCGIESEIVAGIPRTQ

cathepsin L [6] = target: T2, cathepsin L; experiment: In vivo inhibition test for cathepsin L, rat liver ML fraction; set-up: The precipitate (crude mitochondrial-lysosomal fraction; from tissue; host or cells: liver, crude mitochondrial-lysosomal (ML) fraction of dosed rodents; conditions: 6 hours, mean for 3 animals
Procedure: as §2, §3
Target sequence in this assay (P07154 114-288 limits assumed): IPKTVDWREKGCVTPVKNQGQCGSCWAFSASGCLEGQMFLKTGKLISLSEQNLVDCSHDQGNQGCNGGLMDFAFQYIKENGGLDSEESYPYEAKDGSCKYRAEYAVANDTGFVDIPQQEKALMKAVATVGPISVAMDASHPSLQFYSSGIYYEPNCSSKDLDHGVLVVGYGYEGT
Target sequence in this assay (P07154 291-334 limits assumed): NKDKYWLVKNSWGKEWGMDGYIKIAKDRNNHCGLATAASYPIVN

Structure (SMILES)	IC50 (cathepsin B [1])	IC50 (cathepsin L [2])	also measured
CC(=O)O[C@@H]1NC(=O)[C@H]1NC(=O)[C@H](CC1CCCCC1)NC(=O)OCc1ccccc1 [Example 1, (3S,4S)-3-(2S-2-benzyloxycarbonylamino-2-cyclohexylmethyl-acetamido)-4-acetoxy-azetidin-2-one]	8.71 µM	0.78 µM	
CC(=O)O[C@@H]1NC(=O)[C@H]1NC(=O)[C@H](CC1CCCCC1)NC(=O)CCc1ccccc1 [Example 2, (3S,4S)-3-{2S-2-(3-phenylpropionoyl)amino-2-cyclohexylmethyl-acetamido}-4-acetoxy-azetidin-2-one]	11.6 µM	2.32 µM	
N[C@@H](Cc1ccc(O[C@@H]2NC(=O)[C@H]2NC(=O)[C@H](CC2CCCCC2)NC(=O)CCc2ccccc2)cc1)C(=O)O [Example 3, (3S,4S)-3-{2S-2-(3-phenylpropionoyl)amino-2-cyclohexylmethyl-acetamido}-4-{4-(2S-2-amino-2-carboxy-ethyl)-phenoxy}-azetidin-2-one]	34 µM	1.82 µM	Inhibition Cathepsin B (cathepsin B [3]): 65%; Inhibition Cathepsin L (cathepsin L [4]): 55%
N[C@@H](Cc1ccc(O[C@H]2NC(=O)[C@H]2NC(=O)[C@H](CC2CCCCC2)NC(=O)CCc2ccccc2)cc1)C(=O)O [Example 4, (3S,4R)-3-{2S-2-(3-phenylpropionoyl)amino-2-cyclohexylmethyl-acetamido}-4-{4-(2S-2-amino-2-carboxy-ethyl)-phenoxy}-azetidin-2-one]	9.2 µM	1.8 µM	
O=C(CCc1ccccc1)N[C@@H](CC1CCCCC1)C(=O)N[C@H]1C(=O)NC1Sc1ccccc1 (stereo partly drawn) [Example 5, (3S,4SR)-3-{2S-2-(3-phenylpropionoyl)amino-2-cyclohexylmethyl-acetamido}-4-phenylthio-azetidin-2-one]	10.4 µM	0.016 µM	
O=C(CCc1ccccc1)N[C@@H](CC1CCCCC1)C(=O)N[C@H]1C(=O)NC1S(=O)(=O)c1ccccc1 (stereo partly drawn) [Example 6, (3S,4SR)-3-{2S-2-(3-phenylpropionoyl)amino-2-cyclohexylmethyl-acetamido}-4-phenylsulfonyl-azetidin-2-one]	29 µM	0.078 µM	
CC(=O)O[C@@H]1NC(=O)[C@H]1NC(=O)[C@H](CC1CCCCC1)NC(=O)NCc1ccccc1 [Example 7, (3S,4S)-3-{2S-2-(benzylaminocarbonyl)amino-2-cyclohexylmethyl-acetamido}-4-acetoxy-azetidin-2-one]	11.6 µM	2.3 µM	
CC(=O)O[C@@H]1NC(=O)[C@H]1NC(=O)[C@H](CC1CCCCC1)NS(=O)(=O)/C=C/c1ccccc1 [Example 8, (3S,4S)-3-{2S-2-(phenylethenylsulfonyl)amino-2-cyclohexylmethyl-acetamido}-4-acetoxy-azetidin-2-one]	11 µM	2.16 µM	
Cc1cccc(O[C@@H]2NC(=O)[C@H]2NC(=O)[C@H](CC2CCCCC2)NC(=O)OCc2ccccc2)c1 [Example 9A, (3S,4S)-3-(2S-2-benzyloxycarbonylamino-2-cyclohexylmethyl-acetamido)-4-(3-methyl-phenoxy)-azetidin-2-one]	6.9 µM	0.083 µM	
Cc1cccc(O[C@H]2NC(=O)[C@H]2NC(=O)[C@H](CC2CCCCC2)NC(=O)OCc2ccccc2)c1 [Example 9B, (3S,4R)-3-(2S-2-benzyloxycarbonylamino-2-cyclohexylmethyl-acetamido)-4-(3-methyl-phenoxy)-azetidin-2-one]	0.25 µM	0.003 µM	
O=C(C=Cc1ccncc1)N[C@@H](CC1CCCCC1)C(=O)N[C@@H]1C(=O)N[C@H]1Oc1ccccc1 [Example 10, (3S,4S)-3-{2S-2-[3-(pyridin-4-yl)propenoyl]amino-2-cyclohexylmethyl-acetamido}-4-phenoxy-azetidin-2-one]	1 µM	0.4 µM	
O=C(C=Cc1cccnc1)N[C@@H](CC1CCCCC1)C(=O)N[C@@H]1C(=O)N[C@H]1Oc1ccccc1 [Example 11, (3S,4S)-3-{2S-2-[3-(pyridin-3-yl)propenoyl]amino-2-cyclohexylmethyl-acetamido}-4-phenoxy-azetidin-2-one]	2.2 µM	0.43 µM	
N[C@@H](Cc1ccc(O[C@@H]2NC(=O)[C@H]2NC(=O)[C@H](Cc2ccccc2)NC(=O)CCc2ccccc2)cc1)C(=O)O [Ref. Compd.]			Inhibition Cathepsin B (cathepsin B [5]; 30 mg/kg intraperitoneal): 37%; Inhibition Cathepsin B (cathepsin B [5]; 70 mg/kg intraperitoneal): 56%; Inhibition Cathepsin L (cathepsin L [6]; 30 mg/kg intraperitoneal): 30%; Inhibition Cathepsin L (cathepsin L [6]; 70 mg/kg intraperitoneal): 55%
